The source of these data is US8557222B2, “Radiopharmaceutical imaging of neurodegenerative diseases” (priority 2008, dated 2013).

Structures are written as SMILES.

One data set deals with β-amyloid plaque. Description: PET imaging of β-amyloid plaque with ^18F-AV-45 (fused/simulated dual radiopharmaceutical images). The data set is classed as in vivo, human. The settings on record: imaged between 70 and 80 minutes, simulated fused image. As for the experimental part:
(§1) Data was generated from the radiopharmaceutical imaging of β-amyloid plaque and nigrostriatal dopaminergic degeneration utilizing dual radiopharmaceuticals. The radiopharmaceuticals utilized included ^18F-AV-45, which targets β-amyloid plaque and ^18F-AV-133, which targets nigrostriatal neurons. The radiopharmaceuticals were administered via intravenous injection to subjects who were clinically diagnosed with Parkinson's Disease (PD) or Alzheimer's Disease (AD).
(§2) Data was analyzed for PD patients (PD_AV133) and Healthy Controls (HC_AV133) as well as for AD patients (AD_AV45) and Healthy Controls (HC_AV45). Data and images derived from subjects in each category were analyzed individually. Data and images from an average of 4 subjects in each respective category was also analyzed and used as the basis of this protocol. The optimal imaging protocol was judged based on the following criteria: clarity of images/data in the cortical, grey, and white volumes of interest (VOIs) of the brain (relating to diagnosis of AD) and the striatal VOIs of the brain (relating to diagnosis of PD/DLB); ease and level of certainty of the individual diagnoses of the presence or absence of AD, PD, and DLB; minimum level of radiation injected into a patient; and minimum protocol completion time.
(§3) FIGS. 1, 4, 7 and 10 were created by the fusion of two separate image data sets, one from a PET scan of an ^18F amyloid plaque-binding radiopharmaceutical (^18F-AV-45) and one from a PET scan of an ^18F VMAT2 targeted radiopharmaceutical (^18F-AV-133). FIG. 1 is a simulated image of the brain of a healthy individual with no observable amyloid plaques and normal dopaminergic neurons (imaged between 70 and 80 minutes). […] This image pattern is consistent with a pure AD diagnosis, with no evidence of loss of striatal neurons (which would be observed if PD or DLB were also present). […] This image pattern is consistent with a pure PD diagnosis, without evidence of AD amyloid plaque pathology.
(§4) The Statistical Parametric Mapping (SPM2) application in MATLAB® (Version 7.3 R2006b, MathWorks, Inc.) was used to align the raw images and create a mean image from the image set. The mean image was normalized to a SPECT template, although in other experiments, other templates were used. Using the image viewer application in MRICro, the normalized mean image was compared with the template image to confirm that the two images align. […] Standardized uptake values (SUVs) were calculated from the counts extracted from the images. […]
(§5) The cortical regions are where amyloid plaques are found in the brain using the ^18F-AV-45 radiopharmaceutical, while the striatal regions contain dopaminergic neurons detected with the ^18F-AV-133 radiopharmaceutical. […]

Data set [1] can be described thus: Brain washout of first radiopharmaceutical in the dual imaging protocol. The note with it: 10 mCi intravenous; at second acquisition, 30 minutes after ^18F-AV-133 given about 50 minutes after start of protocol. The data set is classed as in vivo, human. The source says: The cortical regions are where amyloid plaques are found in the brain using the ^18F-AV-45 radiopharmaceutical, while the striatal regions contain dopaminergic neurons detected with the ^18F-AV-133 radiopharmaceutical. […] FIGS. 5 and 6 show simulated activity curves for cortical and striatal regions of the brain, respectively, for an individual with AD. FIGS. 8 and 9 show simulated activity curves for cortical and striatal regions of the brain, respectively, of an individual with PD while FIGS. 11 and 12 show simulated activity curves for cortical and striatal regions of the brain, respectively, of an individual with AD and PD. […] Whenever the two radiopharmaceuticals were considered as being simultaneously present in the brain, the SUVs from both radiopharmaceuticals for each region were summed together, and the summed SUVs were plotted. This allowed for the simulation/prediction of the interaction and possible interference of activity of one radiopharmaceutical with the other when both are present in the brain during the imaging of the subject.
Through analyzing and experimenting with the plots and images described above, a protocol for the simultaneous imaging of AD plaques and dopaminergic neuronal degeneration was created. […] The total protocol time was about 80 to 90 minutes. […]

Another data set addresses T1, VMAT2 (Homo sapiens, UniProt Q05940).
T1 construct: from tissue; host or cells: brain (striatal regions, dopaminergic neurons) of living human subjects, in vivo PET
Description: PET imaging of nigrostriatal dopaminergic neurons with ^18F-AV-133 (fused/simulated dual radiopharmaceutical images). The data set is classed as in vivo. The note with it: imaged between 70 and 80 minutes, simulated fused image. The method, then:
as §1, §2, §3, §4, §5

[2] abbreviates: FIG. 4, individual with clinical signs of AD.
The mark [3] stands for this setting: FIG. 7, individual exhibiting symptoms of PD.
Setting [4] is: FIG. 10, individual with both AD and PD.

T1 sequence (Q05940 whole entry): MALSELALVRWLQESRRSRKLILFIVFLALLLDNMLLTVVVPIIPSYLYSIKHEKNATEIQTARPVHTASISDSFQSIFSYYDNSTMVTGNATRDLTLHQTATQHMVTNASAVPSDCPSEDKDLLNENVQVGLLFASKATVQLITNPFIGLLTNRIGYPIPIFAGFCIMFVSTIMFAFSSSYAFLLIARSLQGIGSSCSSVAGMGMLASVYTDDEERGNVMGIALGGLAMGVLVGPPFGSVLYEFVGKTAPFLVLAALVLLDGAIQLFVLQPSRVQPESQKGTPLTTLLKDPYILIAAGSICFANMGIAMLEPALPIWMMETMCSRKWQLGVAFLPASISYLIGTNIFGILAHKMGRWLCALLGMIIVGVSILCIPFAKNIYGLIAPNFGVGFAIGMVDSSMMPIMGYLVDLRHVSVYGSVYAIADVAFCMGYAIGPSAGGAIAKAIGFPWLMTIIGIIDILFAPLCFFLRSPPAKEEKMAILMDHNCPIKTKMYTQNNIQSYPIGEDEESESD

In the case of `CNc1ccc(/C=C/c2ccc(OCCOCCOCC[18F])nc2)cc1` [^18F-AV-45, (E)-4-(2-(6-(2-(2-(2-[^18F]fluoroethoxy)ethoxy)ethoxy)pyridin-3-yl)vinyl)-N-methylbenzenamine], the “cortical brain signal from ^18F-AV-45” value in the data set with β-amyloid plaque (FIG. 1, healthy individual) is given as “no appreciable cortical brain signal”. For the same compound, the “^18F-AV-45 radiopharmaceutical signal (amyloid plaque deposits)” value in the data set on β-amyloid plaque (setting [2]) is “Amyloid plaque deposits are visible in the frontal region of the brain”. Besides, in the data set with β-amyloid plaque (setting [3]), the “amyloid signal in the cortical brain regions from ^18F-AV-45” value is given as “does not show evidence of amyloid signal in the cortical brain regions”. In addition, the “^18F-AV-45 retention (amyloid plaques)” value with β-amyloid plaque (setting [4]) is on record as “retention in cortical brain”. Besides, the “washout and radioactive decay of ^18F-AV-45 from brain” value in data set [1] is reported as “essentially complete”.
With `COc1cc2c(cc1OCCC[18F])CCN1C[C@@H](CC(C)C)[C@H](O)C[C@H]21` [^18F-AV-133, (2R,3R,11bR)-9-(3-[18F]fluoropropoxy)-3-isobutyl-10-methoxy-2,3,4,6,7,11b-hexahydro-1H pyrido[2,1a]isoquinolin-2-ol], the “signal in the nigrostriatal region from ^18F-AV-133” value at VMAT2 (FIG. 1, healthy individual) was “strong signal in the nigrostriatal region”. The “uptake of ^18F-AV-133 in the nigrostriatal region of the brain” value at VMAT2 (setting [2]) is reported as “normal uptake”. Further, the “intensity of ^18F-AV-133 in the striatal regions” value on VMAT2 (setting [3]) was “lack of intensity in the striatal regions”. Further, the “uptake of AV-133 in the striatal regions” value at VMAT2 (setting [4]) was “diminished uptake”.
